Where a name gives a salt, the structure may show the parent alone.

The experiment concerns the target T1, human M1 receptor (hCHRM1) (Homo sapiens, UniProt P11229).
T1 construct: expressed in transfected cells
T1 sequence (P11229 1-460): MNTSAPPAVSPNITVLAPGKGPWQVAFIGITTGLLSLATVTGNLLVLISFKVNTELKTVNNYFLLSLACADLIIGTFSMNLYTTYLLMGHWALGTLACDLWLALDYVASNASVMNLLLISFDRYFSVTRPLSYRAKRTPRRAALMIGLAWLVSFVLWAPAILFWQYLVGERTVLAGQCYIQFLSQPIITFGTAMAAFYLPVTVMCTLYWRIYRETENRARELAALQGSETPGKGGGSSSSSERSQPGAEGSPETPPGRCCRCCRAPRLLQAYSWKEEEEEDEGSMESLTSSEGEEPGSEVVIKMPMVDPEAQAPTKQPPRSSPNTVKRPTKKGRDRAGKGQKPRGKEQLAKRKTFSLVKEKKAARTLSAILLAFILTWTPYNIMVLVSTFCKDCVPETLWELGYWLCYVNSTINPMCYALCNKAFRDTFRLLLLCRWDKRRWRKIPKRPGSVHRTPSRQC
Kind of experiment: Measurement of M1 receptor positive allosteric modulator (M1PAM) activity, Ca2+ fluorescence by FLIPRtetra (Experimental Example 1). The note with it: for activity (%) at 10 μM: 10 μM test compound, 100% = acetylcholine 1 μM, 0% = DMSO; for EC50: inflection point of concentration-dependent curve, in presence of acetylcholine at EC20 (0.8-1.0 nM), CHO-K1 cells expressing hCHRM1, read-out: IP value. It counts as cell-based. On the procedure:
Measurement of M1 Receptor Positive Allosteric Modulator (M1PAM) Activity
The activity of a test compound in the presence of acetylcholine at EC20 concentration (final concentration 0.8-1.0 nM), which affords an action corresponding to about 20% of the maximum activity, was measured as PAM activity. The method is as follows. CHO-K1 cells stably expressing a human M1 receptor (hCHRM1) were plated on a 384-well black clear bottom plate (BD Falcon) at 5,000 cells/well, and cultured in an incubator at 37° C., 5% CO2 for 1 day. The medium in the cell plate was removed, and a dye solution (prepared by adding Recording medium (DOJINDO LABORATORIES) to a final concentration of 1×concentration, Fluo-4 AM (DOJINDO LABORATORIES) to a final concentration of 2.5 μg/mL, Pluronic F127 (DOJINDO LABORATORIES) to a final concentration of 0.08%, and probenecid (DOJINDO LABORATORIES) to a final concentration of 1.25 mM to assay buffer (HBSS (Invitrogen), 20 mM HEPES (Invitrogen), 0.1% BSA (Wako Pure Chemical Industries, Ltd.))) was added at 30 μL/well. The cells were left standing in the incubator at 37° C., 5% CO2 for 30 min, and further left standing at room temperature for 30 min. A test compound prepared by diluting with assay buffer containing 3.2-4.0 nM acetylcholine was added at 10 μL/well, and the fluorescence was measured by FLIPRtetra (Molecular Devices) for 1 min every 1 second. With the definition that the amount of change in the fluorescence on addition of acetylcholine (final concentration 1 μM) is 100% and that on addition of DMSO instead of a test compound is 0%, the activity (%) of the test compound was calculated, and the inflection point in the concentration-dependent curve of the test compound was calculated as IP values.

`Cc1ccc(Cc2cc3c(c4ccccc24)OCN([C@H]2COCC[C@@H]2O)C3=O)cn1` (single isomer, unassigned) [Example 3, 1,5-anhydro-2,4-dideoxy-2-(6-((6-methylpyridin-3-yl)methyl)-4-oxo-2H-naphtho[2,1-e][1,3]oxazin-3(4H)-yl)-threo-pentitol monohydrochloride (optical isomer)]: the “activity (%) at 10 μM” value is recorded as 103% and the EC50 was found to be 2.5 nM.

Turning to `Cc1ccc(Cc2cc3c(c(C)c2C)OCN([C@H]2COCC[C@@H]2O)C3=O)cn1` (single isomer, unassigned) [Example 7, 1,5-anhydro-2,4-dideoxy-2-(7,8-dimethyl-6-((6-methylpyridin-3-yl)methyl)-4-oxo-2H-1,3-benzoxazin-3(4H)-yl)-threo-pentitol monohydrochloride (optical isomer)], the “activity (%) at 10 μM” value was 108% and the EC50 came to 7.9 nM.

Turning to `COc1ccc(Cc2cc3c(c(C)c2C)OCN([C@H]2COCC[C@@H]2O)C3=O)cc1` (single isomer, unassigned) [Example 17, 1,5-anhydro-2,4-dideoxy-2-(6-(4-methoxybenzyl)-7,8-dimethyl-4-oxo-2H-1,3-benzoxazin-3(4H)-yl)-threo-pentitol (optical isomer)], the “activity (%) at 10 μM” value is recorded as 112% and the EC50 is 27 nM.

On to `COc1c(Cc2ccc(-n3cccn3)nc2)cc2c(c1F)OCN([C@H]1CCC[C@@H]1O)C2=O` (single isomer, unassigned) [Example 55, 8-fluoro-3-(trans-2-hydroxycyclopentyl)-7-methoxy-6-((6-(1H-pyrazol-1-yl)pyridin-3-yl)methyl)-2,3-dihydro-4H-1,3-benzoxazin-4-one (optical isomer)], for which the “activity (%) at 10 μM” value was found to be 98% and the EC50 came out at 14 nM.

Consider `Cc1c(Cc2ccc(-n3cccn3)cc2)cc2c(c1F)OCN([C@H]1COCC[C@@H]1O)C2=O` [Example 1, 8-fluoro-3-((3S,4S)-4-hydroxytetrahydro-2H-pyran-3-yl)-7-methyl-6-(4-(1H-pyrazol-1-yl)benzyl)-2,3-dihydro-4H-1,3-benzoxazin-4-one], for which the “activity (%) at 10 μM” value came to 96% and the EC50 is 1.8 nM.

`Cc1ccc(Cc2cc3c(c(Cl)c2C)OCN([C@H]2CCCC[C@@H]2O)C3=O)cn1` [Example 2, 8-chloro-3-((1S,2S)-2-hydroxycyclohexyl)-7-methyl-6-((6-methylpyridin-3-yl)methyl)-2,3-dihydro-4H-1,3-benzoxazin-4-one]: the “activity (%) at 10 μM” value worked out at 106% and the EC50 stood at 2.5 nM.

With `O=C1c2cc(Cc3ccc(Cl)nc3)c3ccccc3c2OCN1[C@H]1COCC[C@@H]1O` [Example 4, 1,5-anhydro-2-(6-((6-chloropyridin-3-yl)methyl)-4-oxo-2H-naphtho[2,1-e][1,3]oxazin-3(4H)-yl)-2,4-dideoxy-L-threo-pentitol], the “activity (%) at 10 μM” value worked out at 109% and the EC50 was 3.2 nM.

Take `Cc1c(Cc2ccc(-n3cccn3)cc2)cc2c(c1F)OCN([C@H]1CCC[C@@H]1O)C2=O` [Example 5, 8-fluoro-3-((1S,2S)-2-hydroxycyclopentyl)-7-methyl-6-(4-(1H-pyrazol-1-yl)benzyl)-2,3-dihydro-4H-1,3-benzoxazin-4-one]: the “activity (%) at 10 μM” value was 104% and the EC50 stood at 8.5 nM.

In the case of `Cc1ccc(Cc2cc3c(c(Cl)c2C)OCN([C@H]2COCC[C@@H]2O)C3=O)cn1` [Example 6, 1,5-anhydro-2-(8-chloro-7-methyl-6-((6-methylpyridin-3-yl)methyl)-4-oxo-2H-1,3-benzoxazin-3(4H)-yl)-2,4-dideoxy-L-threo-pentitol], the “activity (%) at 10 μM” value is listed as 102% and the EC50 was 7 nM.

`Cc1c(Cc2ccc(Cl)nc2)cc2c(c1C)OCN([C@H]1CCC[C@@H]1O)C2=O` [Example 8, 6-((6-chloropyridin-3-yl)methyl)-3-((1S,2S)-2-hydroxycyclopentyl)-7,8-dimethyl-2,3-dihydro-4H-1,3-benzoxazin-4-one]: the “activity (%) at 10 μM” value is on record as 105% and the EC50 is 9.6 nM.

`Cc1c(Cc2ccc(-c3ccn(C)n3)cc2)cc2c(c1F)OCN([C@H]1CCC[C@@H]1O)C2=O` [Example 9, 8-fluoro-3-((1S,2S)-2-hydroxycyclopentyl)-7-methyl-6-(4-(1-methyl-1H-pyrazol-3-yl)benzyl)-2,3-dihydro-4H-1,3-benzoxazin-4-one]: the “activity (%) at 10 μM” value was 98% and the EC50 was 4.6 nM.

`Cc1c(Cc2ccc(Cl)nc2)cc2c(c1C)OCN([C@H]1COCC[C@@H]1O)C2=O` [Example 10, 1,5-anhydro-2-(6-((6-chloropyridin-3-yl)methyl)-7,8-dimethyl-4-oxo-2H-1,3-benzoxazin-3(4H)-yl)-2,4-dideoxy-L-threo-pentitol]: the “activity (%) at 10 μM” value amounted to 109% and the EC50 was found to be 9.1 nM.

Turning to `Cc1ccc(Cc2cc3c(c(C)c2C)OCN([C@H]2CCC[C@@H]2O)C3=O)cn1` [Example 11, 3-((1S,2S)-2-hydroxycyclopentyl)-7,8-dimethyl-6-((6-methylpyridin-3-yl)methyl)-2,3-dihydro-4H-1,3-benzoxazin-4-one], the “activity (%) at 10 μM” value was determined as 95% and the EC50 amounted to 8.5 nM.

Regarding `Cc1c(Cc2ccc(C#N)cc2)cc2c(c1F)OCN([C@H]1CCC[C@@H]1O)C2=O` [Example 12, 4-((8-fluoro-3-((1S,2S)-2-hydroxycyclopentyl)-7-methyl-4-oxo-3,4-dihydro-2H-1,3-benzoxazin-6-yl)methyl)benzonitrile], the “activity (%) at 10 μM” value turned out to be 89% and the EC50 came to 15 nM.

Take `Cc1cc2c(cc1Cc1ccc(-n3cccn3)nc1)C(=O)N([C@H]1CCC[C@@H]1O)CO2` [Example 14, 3-((1S,2S)-2-hydroxycyclopentyl)-7-methyl-6-((6-(1H-pyrazol-1-yl)pyridin-3-yl)methyl)-2,3-dihydro-4H-1,3-benzoxazin-4-one]: the “activity (%) at 10 μM” value worked out at 106% and the EC50 stood at 15 nM.

Consider `Cc1c(Cc2ccc(Cl)nc2)cc2c(c1F)OCN([C@H]1CCC[C@@H]1O)C2=O` [Example 16, 6-((6-chloropyridin-3-yl)methyl)-8-fluoro-3-((1S,2S)-2-hydroxycyclopentyl)-7-methyl-2,3-dihydro-4H-1,3-benzoxazin-4-one], for which the “activity (%) at 10 μM” value was 102% and the EC50 was found to be 20 nM.

`COc1ccc(Cc2cc3c(c(F)c2C)OCN([C@H]2CCC[C@@H]2O)C3=O)cn1` [Example 18, 8-fluoro-3-((1S,2S)-2-hydroxycyclopentyl)-6-((6-methoxypyridin-3-yl)methyl)-7-methyl-2,3-dihydro-4H-1,3-benzoxazin-4-one]: the “activity (%) at 10 μM” value came to 107% and the EC50 was determined as 37 nM.

Consider `Cc1c(Cc2ccc(Cl)nc2)cc2c(c1F)OCN([C@H]1COCC[C@@H]1O)C2=O` [Example 19, 1,5-anhydro-2-(6-((6-chloropyridin-3-yl)methyl)-8-fluoro-7-methyl-4-oxo-2H-1,3-benzoxazin-3(4H)-yl)-2,4-dideoxy-L-threo-pentitol], for which the “activity (%) at 10 μM” value came out at 105% and the EC50 was found to be 45 nM.

Regarding `Cc1ccc(Cc2cc3c(c(F)c2C)OCN([C@H]2CCC[C@@H]2O)C3=O)cn1` [Example 20, 8-fluoro-3-((1S,2S)-2-hydroxycyclopentyl)-7-methyl-6-((6-methylpyridin-3-yl)methyl)-2,3-dihydro-4H-1,3-benzoxazin-4-one], the “activity (%) at 10 μM” value is 85% and the EC50 came out at 24 nM.

For `O=C1c2cc(CN3CCC(F)(F)CC3)c3ccccc3c2OCN1[C@H]1CCC[C@@H]1O` [Example 21, 6-((4,4-difluoropiperidin-1-yl)methyl)-3-((1S,2S)-2-hydroxycyclopentyl)-2,3-dihydro-4H-naphtho[2,1-e][1,3]oxazin-4-one], the “activity (%) at 10 μM” value is 95% and the EC50 is 16 nM.

The values are drawn from patent US10323027B2, “2,3-dihydro-4H-1,3-benzoxazin-4-one derivatives as modulators of cholinergic muscarinic M1 receptor” (Takeda Pharmaceutical Company Limited, priority 2015, dated 2019).
